Where “and” joins values, the source holds several entries; their conditions need not be identical. Equal entries are not always repeated.
Columns and labels:
T-cells [1] = assay: 3-day T-cell proliferation assay after stimulation of buffy coat PBMCs with TGX3 or A146T peptide; assay type: cell-based, human; conditions: buffy coat of healthy donor (buffy 5), FIG. 11
Text: In this Example, Buffy coats were collected from three normal donors (Buffy 5, Buffy 6, and Buffy 7) for testing of T cell responses to selected peptides reflecting exon 2, 3 and 4 mutations in RAS. The standard operating procedure (SOP) for monitoring of T cell responses in clinical studies with KRAS peptide vaccination (TG01) was used for testing of peptide cocktail TGX3 and individual peptides.
Peptide cocktail TGX3 was a mixture of equimolar amounts of A146T+G13C+G13D+Q61R.
The procedure was performed at room temperature. All handling of cells in the open was done in a vertical laminar flow hood. • 1. 3 Buffy coats were ordered from Blodbanken, Ulleval, OUS, Norway • 2. PBMCs were isolated according to methods C001-003 (platelet-low). • 3. The number of viable cells was counted using KOVA Galsstic slides and the cell concentration adjusted to 4×10^6 cells/ml in complete CellGro DC medium (see recipe). Total cell numbers: Buffy 5-585×10^6, Buffy 6-360×10^6, and Buffy 7-405×10^6 cells. […]
c) Second Stimulation (Day 14) of Bulk Cultures • 1. Day 14: Harvested, washed and counted T-cells in the bulk cultures from 6.2; […]
d) Third Stimulation (Day 19) and Testing for Specificities in 3-Day T-Cell Proliferation Assay—Bulk Cultures • 1. Day 19: Harvested, washed and counted T-cells in the bulk cultures from 6.3; […]

T-cells [2] = assay: Bulk cultures for increasing number of TGX3 and peptide reactive T-cells: total T cell numbers; assay type: cell-based, human; conditions: for Total T cell numbers in cultures: Day 14, after first stimulation, 10 μM of each peptide; for Total T cell numbers: Day 19, after second stimulation
Method: b) First Stimulation—Bulk Cultures for Increasing Number of TGX3 and Peptide Reactive T-Cells • 1. Transfered 1 ml of the different PBMCs (4×10^6 cells/ml in DC medium) to each well in a 24-well plate.
• 2. Added TGX3-mix/single peptide to each well for a final concentration of 10 μM of each peptide. • 3. Cultured the cells in a humidified incubator at 37° C./5% CO2 for 3 days • 4. Day 3: Added a final concentration of 20 iU/ml of recombinant human interleukin-2 (rIL-2, b#77) and final concentration of 5 ng/ml recombinant human IL-7 (b#25) to the cell cultures and continued incubation at 37° C./5% CO2. This depended on how fast the cells were growing and needed to be decided by a trained person with T-cell culture experience (according to checklist for training, Section for Cell Therapy). • 5. Days 4-12: Cells were checked regularly under the microscope and split when required (500 μl was withdrawn from each well and replaced with 500 μl fresh CellGro DC medium, supplemented with 20 iU/ml IL-2 and 5 ng/ml IL-7) and wells with slow growing cells were mixed together.
c) Second Stimulation (Day 14) of Bulk Cultures • 1. Day 14: Harvested, washed and counted T-cells in the bulk cultures from 6.2;
Bulk culture cells (ca 2×10^6 T cells/well) were re-stimulated once more with autologous irradiated (30 Gy) APCs (ca 2×10^6 APCs/well) added their respective peptides (as described in step b) above). • 2. Cultured the cells in a humidified incubator at 37° C./5% CO2 for 3 days. • 3. Day 3 after second stimulation (i.e. Day 17 of the procedure): A final concentration of 20 iU/ml of recombinant human interleukin-2 (rIL-2, b#77) and final concentration of 5 ng/ml recombinant human IL-7 (b#25) were added to the cell cultures and continued incubation at 37° C./5% CO2 (as described in step b) above). • 4. Day 18-26: Cells were checked regularly under the microscope and split when required (500 μl was withdrawn from each well and replaced with 500 μl fresh CellGro DC medium, supplemented with 20 iU/ml IL-2 and 5 ng/ml IL-7) and wells with slow growing cells were mixed together (see step b) above).
d) Third Stimulation (Day 19) and Testing for Specificities in 3-Day T-Cell Proliferation Assay—Bulk Cultures • 1. Day 19: Harvested, washed and counted T-cells in the bulk cultures from 6.3;

splenocytes = assay: Splenocyte proliferation assay (3H-thymidine) after subcutaneous vaccination of mice with TG02; assay type: cell-based, BALB/c mice; conditions: ex vivo 10 μM TG02 per peptide or 1 μg/200 μL ConA, 5 days; for Counts per minute (CPM) of stimulated splenocytes: single replicates
Method: In this Example, mice were repeatedly vaccinated subcutaneously with TG02, in order to analyse the immune response. Following the vaccination, splenocytes were harvested, and the proliferative response of the splenocytes was measured.
The study was conducted with 3 groups, each compromising 10 female BALB/c mice. The start of the study was performed on two separate days on which 5 of the animals per group were treated. Therefore the groups were divided into part I and part II. The animals were treated subcutaneously at different time points (Table 30).
In all groups the test item was administered at repeated time points (Table 33) by subcutaneous injection between the nape of the neck and the shoulder. The application volume for all groups was 0.1 mL (0.80 mg TG02).
The spleen of all animals was removed, transferred to cell culture medium (RPMI 1640 medium supplemented with 10% FCS, 100 U/mL Penicillin, 100 μg/mL Streptomycin, 2 mM L-Glutamine, and 50 μM beta-mercaptoethanol) and stored on ice. All steps were performed sterile and cells were kept on ice.
A single cell suspension from splenic cells was generated using a cell strainer. After centrifugation (350 g, 5 min, 5±3° C.), supernatant was removed and the cell pellet was resuspended in ACK buffer and incubated for 5 min at RT. 10 mL cell culture medium was added. The samples were left 5 min on bench top to let the cell debris sediment. The suspension above the cell debris was transferred into another tube and was centrifuged (350 g, 5 min, 5±3° C.). The supernatant was removed and the cell pellet was resuspended in 10 mL cell culture medium. After counting of cells, 0.2 Mio cells were seeded in a 96 well plate (180 μL per well; 1,1*10^6 cells/mL). 9 replicates were plated on each plate for each spleen.
The following stimulations were performed: • 3 replicates: unstimulated (addition of 20 μL cell culture medium) • 3 replicates: stimulation with 10 μM TG02 (8 peptides, 10 μM end concentration per peptide, addition in 20 μL cell culture medium) • 3 replicates: stimulation with 1 μg/200 μL ConA (Concanavalin A) (addition of 1 μg ConA in 20 μL cell culture medium)
Incubation at 37° C. and 5% CO2 for 24 h (1), 48 h (2) or 5 days (3).
Proliferation Assay • (3) After 5 days, 1 μCi/well ^3H-Thymidine was added to the samples, which were then incubated for 18 h at 37° C. and 5% CO2. The plates were then frozen at […]
Plates were thawed at RT. After washing off the harvester, the samples were transferred to a filter plate using the harvester followed by 5 washing steps using water. Filter plates were dried at RT overnight. A foil was stuck to the bottom of the filter plates and 20 μL scintillation fluid was added to the wells. After incubation of 1 h at RT, the samples were measured using a TopCount NXT and the stimulation index (SI) was calculated. SI=CPM of stimulated samples/CPM of control samples.

How did the “T-cell proliferation after stimulation with A146T peptide (result in words)” value (T-cells [1]) turn out when “GIPFIETSTKTRQRVED (listed as Homo sapiens) [A146T, KRAS peptide having a A146T mutation]” was run?
The value was “immunogenic and is efficient in inducing T-cell proliferation”.

What about the “T-cell proliferation after stimulation with A146T peptide (result in words)” value (T-cells [1]; listed as A146T peptide) of the same substance?
The value was “stimulates induction of T-cells”.

What about the “Total T cell numbers in cultures” value (T-cells [2]; Buffy 5) of the same substance?
The value was 4 × 10^6.

And the “Total T cell numbers” value (T-cells [2]; Buffy 5)?
Its value is 10.8 × 10^6.

And the “Total T cell numbers in cultures” value (T-cells [2]; Buffy 6)?
Its value is 4 × 10^6.

And the “Total T cell numbers” value (T-cells [2]; Buffy 6)?
The value was 12.6 × 10^6.

What about the “Total T cell numbers in cultures” value (T-cells [2]; Buffy 7) of the same substance?
The value was 6.8 × 10^6.

What about the “Total T cell numbers” value (T-cells [2]; Buffy 7) of the same substance?
The value was 14.4 × 10^6.

Which “Mean counts per minute (CPM) of stimulated splenocytes” value (“Mean counts per minute (CPM)” for short) (splenocytes; Mean Mouse #4 (vaccinated with TG02)) does the source give for Concanavalin A [ConA] here?
Its value is 15,210 CPM.

What about the “Mean counts per minute (CPM)” value (splenocytes; Mean Mouse #7 (vaccinated with TG02)) of the same substance?
Its value is 6158 CPM.

What about the “Mean counts per minute (CPM)” value (splenocytes; Mean Mouse #24 (vaccinated with TG02+Viscogel)) of the same substance?
Its value is 8823 CPM.

And the “Mean counts per minute (CPM)” value (splenocytes; Mean Mouse #29 (vaccinated with TG02+Viscogel))?
The value was 10,935 CPM.

What about the “Counts per minute (CPM) of stimulated splenocytes” value (splenocytes; Mouse #4 (vaccinated with TG02)) of the same substance?
The value was 15,113 CPM and 12,612 CPM and 17,906 CPM.

And the “Counts per minute (CPM) of stimulated splenocytes” value (splenocytes; Mouse #7 (vaccinated with TG02))?
The value was 5305 CPM and 6252 CPM and 6916 CPM.

And the “Counts per minute (CPM) of stimulated splenocytes” value (splenocytes; Mouse #24 (vaccinated with TG02+Viscogel))?
Its value is 7834 CPM and 8578 CPM and 10,057 CPM.

What about the “Counts per minute (CPM) of stimulated splenocytes” value (splenocytes; Mouse #29 (vaccinated with TG02+Viscogel)) of the same substance?
Its value is 9480 CPM and 13,292 CPM and 10,033 CPM.

What about the “Counts per minute (CPM) of stimulated splenocytes” value (splenocytes; Mouse #30 (vaccinated with TG02+Viscogel)) of the same substance?
The value was 32,205 CPM and 35,668 CPM and 42,149 CPM.

What about the “Mean counts per minute (CPM)” value (splenocytes; Mouse #30 mean line (vaccinated with TG02+Viscogel)) of the same substance?
The value was 36,687 CPM.

Source: patent US20190374628A1, “MUTATED FRAGMENTS OF THE RAS PROTEIN” (Targovax ASA, priority 2015, published 2019)
